Reference: publication doi:10.1101/2019.12.11.872838v1 (biorxiv, 2019)

Molecular target: KDM1A (Homo sapiens, UniProt O60341)
Assay: ALPHA screen demethylation assay
Format: biochemical

- IC50: > 10 µM
Structure (SMILES): CO[C@H]1/C=C\C=C(/C)C(=O)NC2=CC(=O)C(NCCN(C)C)=C(C[C@@H](C)C[C@H](OC)[C@H](O)[C@@H](C)/C=C(\C)[C@@H]1OC(N)=O)C2=O [17-DMAG]
